Broadly, the IC50 is the concentration needed to halve the response being measured.

Here are results for 8 compounds from US20240376085A1 (Janssen Pharmaceutica NV, priority 2021, published 2024).

The target in assay [1] is T1, IL-17A : IL-17RA binding (Homo sapiens, UniProt Q16552, K93Q).
T1 construct: Name: IL-17A-Flag
The assay is described as follows: IL-17A(FLAG-tagged):IL-17RA(His-tagged) binding disruption Eu-HTRF assay, Protocol 1. The settings on record: FLAG-IL-17A 2.5 nM at 2x final concentration; average if tested more than once. Put shortly:
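IC50 came from a one-site competition fit of the acceptor/donor (665/620 nm) HTRF ratio. His-tagged IL-17RA, Eu-anti-FLAG and D2-anti-His were added after a 1 h rt compound preincubation with FLAG-tagged IL-17A dimer in PBS/0.01% Triton X-100, followed by 2 h at rt before reading.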

In assay [2] the test system is IL-17A-induced G-CSF production in human normal keratinocyte (NHK). Nature of the assay: NHK assay: IL-17A-induced G-CSF production in normal human keratinocytes. It counts as cell-based. The settings on record: 24 h, IL-17A 5 ng/mL, average if tested more than once. Put shortly:
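IC50 derives from G-CSF in supernatants, quantified by HTRF from a standard curve, with CellTiter-Glo viability compared to DMSO control. Before a 24 h, 37°C culture of normal human keratinocytes at 3000–4000 cells/well, compound dilutions were preincubated 1 h at rt with human IL-17A (5 ng/mL final), with 0.2% DMSO and 5% FBS.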

T1 sequence (Q16552 with tags, fused parts or gaps K93Q): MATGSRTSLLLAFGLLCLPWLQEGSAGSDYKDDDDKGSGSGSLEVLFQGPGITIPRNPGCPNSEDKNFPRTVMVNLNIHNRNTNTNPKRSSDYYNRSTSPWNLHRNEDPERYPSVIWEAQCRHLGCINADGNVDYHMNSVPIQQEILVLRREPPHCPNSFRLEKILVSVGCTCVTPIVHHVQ

Consider `C[C@@H](NC(=O)CC(C)(C)C)c1ccc2[nH]c([C@@H](NC(=O)c3ccnn3C)C3CCC(F)(F)CC3)nc2c1` [Example 117, N—((S)-(4,4-Difluorocyclohexyl)(5-((R)-1-(3,3-dimethylbutanamido)ethyl)-1H-benzo[d]imidazol-2-yl)methyl)-1-methyl-1H-pyrazole-5-carboxamide], for which the IC50 in assay [1] was over 100 nM; in assay [2] (Homo sapiens, Keratinocyte), over 100 nM.

Turning to `CC(CC(=O)N[C@H](C)c1ccc2nc([C@@H](NC(=O)c3ccnn3CCC(F)(F)F)C3CCC(F)(F)CC3)[nH]c2c1)C(F)(F)F` (single isomer, unassigned) [Example 138, N—((S)-(4,4-Difluorocyclohexyl)(6-((R)-1-((S*)-4,4,4-trifluoro-3-methylbutanamido)ethyl)-1H-benzo[d]imidazol-2-yl)methyl)-1-(3,3,3-trifluoropropyl)-1H-pyrazole-5-carboxamide], the IC50 is over 100 nM in assay [1] and 50 to 100 nM in assay [2].

Consider `CC(C)n1nccc1C(=O)N[C@H](c1nc2cc([C@H](NC(=O)CC3CC(F)(F)C3)C3CC3)ccc2[nH]1)C1CCC(F)(F)CC1` [Example 142, N—((S)-(5-((R)-Cyclopropyl(2-(3,3-difluorocyclobutyl)acetamido)methyl)-1H-benzo[d]imidazol-2-yl)(4,4-difluorocyclohexyl)methyl)-1-isopropyl-1H-pyrazole-5-carboxamide], for which the IC50 in assay [1] is 50 to 100 nM; in assay [2] (Homo sapiens, Keratinocyte), under 50 nM.

`Cc1nonc1C(=O)N[C@H](c1nc2ccc([C@H](NC(=O)CC3CC(F)(F)C3)C3CC3)cc2[nH]1)C1CCCCO1` (single isomer, unassigned) [Example 252, N—((R)-(6-((R)-Cyclopropyl(2-(3,3-difluorocyclobutyl)acetamido)methyl)-1H-benzo[d]imidazol-2-yl)((R*)-tetrahydro-2H-pyran-2-yl)methyl)-4-methyl-1,2,5-oxadiazole-3-carboxamide]: the IC50 was over 100 nM in assay [1] and over 100 nM in assay [2] (Homo sapiens, Keratinocyte).

As for `CC(C)n1ncnc1C(=O)NC(CC(C)(C)C(F)(F)F)c1nc2cc([C@@H](C)NC(=O)CCC(F)(F)F)ccc2[nH]1` (single isomer, unassigned) [Example 196, 1-Isopropyl-N—((S*)-4,4,4-trifluoro-3,3-dimethyl-1-(5-((R)-1-(4,4,4-trifluorobutanamido)ethyl)-1H-benzo[d]imidazol-2-yl)butyl)-1H-1,2,4-triazole-5-carboxamide], the IC50 in assay [1] was over 100 nM; in assay [2] (Homo sapiens, Keratinocyte) it was over 100 nM.

Consider `CC(C)c1nnsc1C(=O)N[C@H](c1nc2cc([C@@H](C)NC(=O)CCC(F)(F)F)ccc2[nH]1)C1CCC(F)(F)CC1` [Example 188, N—((S)-(4,4-Difluorocyclohexyl)(5-((R)-1-(4,4,4-trifluorobutanamido)ethyl)-1H-benzo[d]imidazol-2-yl)methyl)-4-isopropyl-1,2,3-thiadiazole-5-carboxamide], for which the IC50 was over 100 nM in assay [1] and over 100 nM in assay [2] (Homo sapiens, Keratinocyte).

Consider `C[C@@H](NC(=O)CCC(F)(F)F)c1ccc2[nH]c([C@@H](NC(=O)c3ncnn3CCC(F)F)C3CCC(F)(F)CC3)nc2c1` [Example 41, N—[(S)-(4,4-Difluorocyclohexyl)-[6-[(1R)-1-(4,4,4-trifluorobutanoylamino)ethyl]-1H-benzimidazol-2-yl]methyl]-2-(3,3-difluoropropyl)-1,2,4-triazole-3-carboxamide], for which the IC50 is over 100 nM in assay [1] and over 100 nM in assay [2] (Homo sapiens, Keratinocyte).

On to `O=C(CC1CC(F)(F)C1)N[C@@H](c1ccc2[nH]c([C@@H](NC(=O)c3nonc3C3CC3)C3CCC(F)(F)CC3)nc2c1)C1CC1` [Example 143, 4-Cyclopropyl-N—((S)-(5-((R)-cyclopropyl(2-(3,3-difluorocyclobutyl)acetamido)methyl)-1H-benzo[d]imidazol-2-yl)(4,4-difluorocyclohexyl)methyl)-1,2,5-oxadiazole-3-carboxamide], for which the IC50 in assay [1] was under 50 nM; in assay [2] (Homo sapiens, Keratinocyte), under 50 nM.
